System: 931267-113-T-J1-PDC multicell spheroid viability
Assay: Anticancer human tumor 931267-113-T-J1-PDC patient-derived colon adenocarcinoma cell line growth inhibition [PI3K]
Conditions: for IC50: curve of first compound; for viability, T/C: stronger effect = lower value
Outline: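 We assembled tumor spheroids that included a stromal compartment of HUVEC and MSCs, then exposed them to targeted agents alone and together with PI3K pathway inhibitors. Concentration series descended by half-log from clinically achievable Cmax levels. Viability served as the endpoint.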

[1] = second compound 0.00316 µM, first compound 0.0316 µM
[2] = second compound 0.00316 µM, first compound 0.1 µM
[3] = second compound 0.00316 µM, first compound 0.316 µM
[4] = second compound 0.00316 µM, first compound 1 µM
[5] = second compound 0.00316 µM, first compound 3.16 µM
[6] = second compound 0.00316 µM, first compound 10 µM
[7] = second compound 0.01 µM, first compound 0.0316 µM
[8] = second compound 0.01 µM, first compound 0.1 µM
[9] = second compound 0.01 µM, first compound 0.316 µM
[10] = second compound 0.01 µM, first compound 1 µM
[11] = second compound 0.01 µM, first compound 3.16 µM
[12] = second compound 0.01 µM, first compound 10 µM
[13] = second compound 0.0316 µM, first compound 0.0316 µM
[14] = second compound 0.0316 µM, first compound 0.1 µM
[15] = second compound 0.0316 µM, first compound 0.316 µM
[16] = second compound 0.0316 µM, first compound 1 µM
[17] = second compound 0.0316 µM, first compound 3.16 µM
[18] = second compound 0.0316 µM, first compound 10 µM
[19] = second compound 0.1 µM, first compound 0.0316 µM
[20] = second compound 0.1 µM, first compound 0.1 µM
[21] = second compound 0.1 µM, first compound 0.316 µM
[22] = second compound 0.1 µM, first compound 1 µM
[23] = second compound 0.1 µM, first compound 3.16 µM
[24] = second compound 0.1 µM, first compound 10 µM
[25] = second compound 0.316 µM, first compound 0.0316 µM
[26] = second compound 0.316 µM, first compound 0.1 µM
[27] = second compound 0.316 µM, first compound 0.316 µM
[28] = second compound 0.316 µM, first compound 1 µM
[29] = second compound 0.316 µM, first compound 3.16 µM
[30] = second compound 0.316 µM, first compound 10 µM
[31] = second compound 1 µM, first compound 0.0316 µM
[32] = second compound 1 µM, first compound 0.1 µM
[33] = second compound 1 µM, first compound 0.316 µM
[34] = second compound 1 µM, first compound 1 µM
[35] = second compound 1 µM, first compound 3.16 µM
[36] = second compound 1 µM, first compound 10 µM
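Note: viability read 7 days after compound addition.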

## C#Cc1c(F)ccc2cc(O)cc(-c3ncc4c(N5CC6CCC(C5)N6)nc(OCC56CCCN5CC(F)C6)nc4c3F)c12 (stereo not drawn) + CC(Nc1ccc2c(c1)OCCn1cc(N3C(=O)OCC3C(F)F)nc1-2)C(N)=O
Second compound 0.00316 µM
  IC50: 0.531 µM
Second compound 0.01 µM
  IC50: 0.419 µM
Second compound 0.0316 µM
  IC50: 0.364 µM
Second compound 0.1 µM
  IC50: 0.219 µM
Second compound 0.316 µM
  IC50: 0.179 µM
Second compound 1 µM
  IC50: 0.0558 µM
[1]
  viability, T/C: 76.7%
[2]
  viability, T/C: 76.6%
[3]
  viability, T/C: 49%
[4]
  viability, T/C: 45.8%
[5]
  viability, T/C: 33.9%
[6]
  viability, T/C: 26%
[7]
  viability, T/C: 79%
[8]
  viability, T/C: 65.4%
[9]
  viability, T/C: 52.9%
[10]
  viability, T/C: 41.8%
[11]
  viability, T/C: 31.3%
[12]
  viability, T/C: 24.8%
[13]
  viability, T/C: 83.5%
[14]
  viability, T/C: 65.3%
[15]
  viability, T/C: 53.4%
[16]
  viability, T/C: 36.6%
[17]
  viability, T/C: 29.1%
[18]
  viability, T/C: 18.8%
[19]
  viability, T/C: 82.4%
[20]
  viability, T/C: 63.3%
[21]
  viability, T/C: 43.7%
[22]
  viability, T/C: 29.4%
[23]
  viability, T/C: 22.9%
[24]
  viability, T/C: 17%
[25]
  viability, T/C: 72.3%
[26]
  viability, T/C: 56.4%
[27]
  viability, T/C: 45%
[28]
  viability, T/C: 25.1%
[29]
  viability, T/C: 19.8%
[30]
  viability, T/C: 13.3%
[31]
  viability, T/C: 57.5%
[32]
  viability, T/C: 43.9%
[33]
  viability, T/C: 26%
[34]
  viability, T/C: 23.6%
[35]
  viability, T/C: 14.7%
[36]
  viability, T/C: 10.8%

## C=CC(=O)N1CCN(c2nc(=O)n(-c3c(C)ccnc3C(C)C)c3nc(-c4c(O)cccc4F)c(F)cc23)C(C)C1 (stereo not drawn) + CC(Nc1ccc2c(c1)OCCn1cc(N3C(=O)OCC3C(F)F)nc1-2)C(N)=O
Second compound 0.00316 µM
  IC50: > 10 µM
Second compound 0.01 µM
  IC50: > 10 µM
Second compound 0.0316 µM
  IC50: > 10 µM
Second compound 0.1 µM
  IC50: > 10 µM
Second compound 0.316 µM
  IC50: > 10 µM
Second compound 1 µM
  IC50: > 10 µM
[1]
  viability, T/C: 108%
[2]
  viability, T/C: 106%
[3]
  viability, T/C: 100%
[4]
  viability, T/C: 114%
[5]
  viability, T/C: 115%
[6]
  viability, T/C: 107%
[7]
  viability, T/C: 94.8%
[8]
  viability, T/C: 98%
[9]
  viability, T/C: 117%
[10]
  viability, T/C: 118%
[11]
  viability, T/C: 110%
[12]
  viability, T/C: 106%
[13]
  viability, T/C: 122%
[14]
  viability, T/C: 105%
[15]
  viability, T/C: 90.4%
[16]
  viability, T/C: 109%
[17]
  viability, T/C: 114%
[18]
  viability, T/C: 106%
[19]
  viability, T/C: 102%
[20]
  viability, T/C: 100%
[21]
  viability, T/C: 86.7%
[22]
  viability, T/C: 102%
[23]
  viability, T/C: 98%
[24]
  viability, T/C: 97%
[25]
  viability, T/C: 91.9%
[26]
  viability, T/C: 87.1%
[27]
  viability, T/C: 99.8%
[28]
  viability, T/C: 88.8%
[29]
  viability, T/C: 90.4%
[30]
  viability, T/C: 72.2%
[31]
  viability, T/C: 92.9%
[32]
  viability, T/C: 74%
[33]
  viability, T/C: 79%
[34]
  viability, T/C: 80.7%
[35]
  viability, T/C: 83.8%
[36]
  viability, T/C: 71.4%

## CC(Cn1ccc(-c2ccc(C#N)c(Cl)c2)n1)NC(=O)c1cc(C(C)O)[nH]n1 (stereo not drawn) + CC(Nc1ccc2c(c1)OCCn1cc(N3C(=O)OCC3C(F)F)nc1-2)C(N)=O
Second compound 0.00316 µM
  IC50: > 10 µM
Second compound 0.01 µM
  IC50: > 10 µM
Second compound 0.0316 µM
  IC50: > 10 µM
Second compound 0.1 µM
  IC50: > 10 µM
Second compound 0.316 µM
  IC50: > 10 µM
Second compound 1 µM
  IC50: > 10 µM
[1]
  viability, T/C: 88.4%
[2]
  viability, T/C: 101%
[3]
  viability, T/C: 98.5%
[4]
  viability, T/C: 110%
[5]
  viability, T/C: 111%
[6]
  viability, T/C: 101%
[7]
  viability, T/C: 102%
[8]
  viability, T/C: 103%
[9]
  viability, T/C: 106%
[10]
  viability, T/C: 115%
[11]
  viability, T/C: 113%
[12]
  viability, T/C: 110%
[13]
  viability, T/C: 107%
[14]
  viability, T/C: 106%
[15]
  viability, T/C: 101%
[16]
  viability, T/C: 89.8%
[17]
  viability, T/C: 112%
[18]
  viability, T/C: 91.5%
[19]
  viability, T/C: 98.5%
[20]
  viability, T/C: 98.8%
[21]
  viability, T/C: 101%
[22]
  viability, T/C: 94.8%
[23]
  viability, T/C: 103%
[24]
  viability, T/C: 79.8%
[25]
  viability, T/C: 92.4%
[26]
  viability, T/C: 90.5%
[27]
  viability, T/C: 86.8%
[28]
  viability, T/C: 80.2%
[29]
  viability, T/C: 90.4%
[30]
  viability, T/C: 72.8%
[31]
  viability, T/C: 76.4%
[32]
  viability, T/C: 76.8%
[33]
  viability, T/C: 74.2%
[34]
  viability, T/C: 74.8%
[35]
  viability, T/C: 76.1%
[36]
  viability, T/C: 59.2%

## CC1(C)CCC(Nc2ncc(C(F)(F)F)c(-c3c[nH]c4c(P(C)(C)=O)c(C#N)ccc34)n2)CN1 (stereo not drawn) + CC(Nc1ccc2c(c1)OCCn1cc(N3C(=O)OCC3C(F)F)nc1-2)C(N)=O
Second compound 0.00316 µM
  IC50: > 10 µM
Second compound 0.01 µM
  IC50: > 10 µM
Second compound 0.0316 µM
  IC50: 8.54 µM
Second compound 0.1 µM
  IC50: > 10 µM
Second compound 0.316 µM
  IC50: 6.39 µM
Second compound 1 µM
  IC50: 4.8 µM
[1]
  viability, T/C: 99.7%
[2]
  viability, T/C: 88.6%
[3]
  viability, T/C: 85.2%
[4]
  viability, T/C: 71.8%
[5]
  viability, T/C: 78.2%
[6]
  viability, T/C: 49.5%
[7]
  viability, T/C: 102%
[8]
  viability, T/C: 89.2%
[9]
  viability, T/C: 83.5%
[10]
  viability, T/C: 74.6%
[11]
  viability, T/C: 67.7%
[12]
  viability, T/C: 49.8%
[13]
  viability, T/C: 91.2%
[14]
  viability, T/C: 88.2%
[15]
  viability, T/C: 79.6%
[16]
  viability, T/C: 71.5%
[17]
  viability, T/C: 72.8%
[18]
  viability, T/C: 45%
[19]
  viability, T/C: 99.7%
[20]
  viability, T/C: 90.5%
[21]
  viability, T/C: 76.6%
[22]
  viability, T/C: 74%
[23]
  viability, T/C: 73.7%
[24]
  viability, T/C: 46.2%
[25]
  viability, T/C: 87%
[26]
  viability, T/C: 79%
[27]
  viability, T/C: 72.9%
[28]
  viability, T/C: 74.1%
[29]
  viability, T/C: 73.1%
[30]
  viability, T/C: 36%
[31]
  viability, T/C: 81.4%
[32]
  viability, T/C: 75.4%
[33]
  viability, T/C: 64.2%
[34]
  viability, T/C: 65.2%
[35]
  viability, T/C: 64.2%
[36]
  viability, T/C: 34.6%
